Results taken from PubChem BioAssay (NCI).
“And” between values parts separate entries of the source, which are not always exact repeats. Equal entries are not always repeated.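 96-well plates; 48 h exposure; 5 concentrations. Endpoints by linear interpolation between flanking doses. Not reached: highest tested concentration assigned. Abbreviation: GI50, concentration required for 50% inhibition of growth. TGI: total growth inhibition.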

What was measured:
Test in all cases: NCI-60 cell line screen, 48 h
SK-OV-3 ovarian = tested on: SK-OV-3 ovarian
HCT-15 colon = tested on: HCT-15 colon
MCF7 breast = tested on: MCF7 breast
OVCAR-4 ovarian = tested on: OVCAR-4 ovarian
UACC-257 melanoma = tested on: UACC-257 melanoma
SNB-75 CNS = tested on: SNB-75 CNS
LOX IMVI melanoma = tested on: LOX IMVI melanoma
RPMI-8226 leukemia = tested on: RPMI-8226 leukemia
NCI-H226 lung = tested on: NCI-H226 lung
SK-MEL-2 melanoma = tested on: SK-MEL-2 melanoma

| SMILES | GI50 (SK-OV-3 ovarian) [µM] | TGI (SK-OV-3 ovarian) [µM] | GI50 (HCT-15 colon) [nM] | TGI (HCT-15 colon) | GI50 (MCF7 breast) [nM] | TGI (MCF7 breast) | GI50 (OVCAR-4 ovarian) [µM] | TGI (OVCAR-4 ovarian) | GI50 (UACC-257 melanoma) [nM] | TGI (UACC-257 melanoma) | GI50 (SNB-75 CNS) [nM] | TGI (SNB-75 CNS) | GI50 (LOX IMVI melanoma) [nM] | TGI (LOX IMVI melanoma) | GI50 (RPMI-8226 leukemia) [nM] | TGI (RPMI-8226 leukemia) | GI50 (NCI-H226 lung) [µM] | TGI (NCI-H226 lung) [µM] | GI50 (SK-MEL-2 melanoma) | TGI (SK-MEL-2 melanoma) [µM] |
| --- | --- | --- | --- | --- | --- | --- | --- | --- | --- | --- | --- | --- | --- | --- | --- | --- | --- | --- | --- | --- |
| COc1cc(C=NCC(=O)CSC(c2ccccc2)c2ccccc2)cc(OC)c1OC | 23.3 | 76 | 21500 | > 100 µM | 19800 | > 100 µM | 5.18 | 64.4 µM | 13900 | 60.5 µM | 25500 | > 100 µM | 23100 | > 100 µM | 5180 | 39.9 µM | 17.9 | > 100 | 19.6 µM | 50 |
| C=C1C(=O)O[C@H]2[C@H](OC(C)=O)[C@@H](C)CCC/C(C)=C/CC[C@]3(CO3)[C@H](O)C[C@@H]12 | 9.12 | 21.7 | 1840 | 3.76 µM | 3240 | 12 µM | 6.89 | 21.9 µM | 12400 | 26.1 µM | 10800 | 22.9 µM | 2070 | 4.75 µM | 1840 | 5.49 µM | 16.3 | 38.6 | 14.8 µM | 31.9 |
| CN1C=CN(Cc2ccc(-c3ccccn3)nc2)[CH-]1.CN1C=CN(Cc2ccc(-c3ccccn3)nc2)[CH-]1.[Au+3] | 9.32 | > 56.7 | 1600 | > 54.6 µM | 314 | 12.2 µM | 0.769 | 14.1 µM | 1520 | 7.47 µM | 13900 | > 51.8 µM | 2890 | 13.4 µM | 1340 | 20.1 µM | 5.65 | > 64.2 | 7.05 µM | 32.4 |
| CC(=O)OCC1OC(O[C@@H]2C[C@H]3C(C)(C)[C@H](OC(C)=O)CC[C@]3(C)[C@H]3CC[C@@H]4[C@]5(CC[C@@]4(C)[C@@]32C)O[C@@H]([C@H](O)C(C)(C)O)C[C@@H]5C)C(O)C(O)C1O (stereo partly specified) | 7.95 | 20.7 | 2190 | 5.94 µM | 1060 | 6.03 µM | 3.35 | 16.4 µM | 11400 | 24 µM | 5130 | 18.4 µM | 3610 | 15.6 µM | 3370 | 19 µM | 10.7 | 28.2 | 6.04 µM | 19.7 |
| NC(=O)c1ccc(-c2c3ccccc3cc3c2ccc2ccccc23)cc1 | 4.02 | 24.2 | 2810 | > 100 µM | 1880 | 11.6 µM | 5.79 | 29.7 µM | 12100 | > 100 µM | 2190 | 9.15 µM | 4860 | 32.6 µM | 5600 | 40.7 µM | 6.97 | 52.3 | – | – |
| Fc1cc(Nc2ccc3c(OCCCN4CCOCC4)cccc3n2)ccc1Cl | 2.24 | 4.72 | 1400 | 3.06 µM | – | – | 3.75 | 88.5 µM | 2180 | 4.25 µM | 1860 | 6.2 µM | 1710 | 3.17 µM | 2640 | 6.97 µM | 2.76 | 7.83 | 1.96 µM | 4.04 |
| ClCc1ccc(Cn2cnc3ncnc(Cl)c32)cc1 | 11.3 | 23.3 | – | – | 1350 | 2.94 µM | – | – | 1570 | 3.48 µM | – | – | – | – | 1280 | 2.67 µM | 2.99 | 12 | 6.3 µM | > 100 |
| O=C(O)CNS(=O)(=O)c1ccc(NC(=O)c2cccc([N+](=O)[O-])c2)cc1 | – | > 100 | – | > 100 µM | – | – | – | > 100 µM | – | > 100 µM | – | > 100 µM | – | > 100 µM | – | > 100 µM | – | > 100 | – | > 100 |
| C=C(C)[C@@H]1CC[C@]2(C#N)CC[C@]3(C)[C@H](CC[C@@H]4[C@@]5(C)CCCNC(C)(C)[C@@H]5CC[C@]43C)[C@@H]12 | 11.1 | 25.4 | 1610 | 3.05 µM | 1530 | 2.91 µM | 2.16 | 4.44 µM | 2270 | 4.3 µM | – | – | 1670 | 3.04 µM | – | – | 2.61 | 9.79 | 2.1 µM | 3.94 |
| COCCn1cc(-c2csc(-c3c[nH]c4ccc(F)cc34)n2)c2cccnc21 | – | – | 2350 | > 100 µM | 2090 | > 100 µM | 2.59 | > 100 µM | – | – | 2970 | > 100 µM | 3440 | > 100 µM | – | – | – | – | 3.89 µM | > 100 |
| CN(C)c1ccc(/C=N/Nc2ccc(-c3nc4ccccc4[nH]3)cc2)cc1 | 21.2 | > 50 | 6730 | 35.7 µM | 8440 | 35.6 µM | – | – | 9810 | 25.8 µM | – | – | 4860 | 11.6 µM | 4600 | > 50 µM | – | – | 8.27 µM | 26.4 |
| C[C@H]1CC(=O)[C@@]2(O)C#C/C=C\C#C[C@@H]3Nc4c(cc(O)c5c4C(=O)c4ccccc4C5=O)[C@]24O[C@]314 | – | 0.0954 | 7.22 | 0.836 µM and 0.148 µM | 2.5 | 0.247 µM and 0.895 µM | 0.351 | 0.648 µM and 1.92 µM | 7.94 | 0.204 µM and 0.286 µM | 6.2 | 0.0804 µM and 0.0719 µM | 2.5 | 0.18 µM and 0.326 µM | 3.13 | 0.249 µM and 0.154 µM | 0.0025 | – | – | – |
| O=C(O)CCN1C(=O)/C(=C/C(Cl)=C/c2ccccc2)SC1=S | 7.54 | 20.1 | 1770 | 6.82 µM | 1980 | 13.1 µM | 4.79 | 18 µM | 1960 | 7.81 µM | 1790 | 10.1 µM | 1500 | 3.04 µM | – | – | 6.46 | 95.9 | 2.16 µM | 6.27 |
| O=C(O)C(O)C(O)C1[O][Sb][O]C1CO (stereo unspecified) | > 100 | > 100 | > 100000 | > 100 µM | – | – | > 100 | > 100 µM | > 100000 | > 100 µM | > 100000 | > 100 µM | > 100000 | > 100 µM | > 100000 | > 100 µM | > 100 | > 100 | 85.8 µM and 36.8 µM | > 100 |
